Drawing on patent US10131651B2, “[7,6]-fused bicyclic antidiabetic compounds” (Merck Sharp & Dohme Corp., priority 2014, dated 2018), this text covers EC50 for 12 compounds.

One may read the EC50 as the concentration needed to bring the measured effect to its halfway point.

Sequence of human GPR40 (O14842 whole entry): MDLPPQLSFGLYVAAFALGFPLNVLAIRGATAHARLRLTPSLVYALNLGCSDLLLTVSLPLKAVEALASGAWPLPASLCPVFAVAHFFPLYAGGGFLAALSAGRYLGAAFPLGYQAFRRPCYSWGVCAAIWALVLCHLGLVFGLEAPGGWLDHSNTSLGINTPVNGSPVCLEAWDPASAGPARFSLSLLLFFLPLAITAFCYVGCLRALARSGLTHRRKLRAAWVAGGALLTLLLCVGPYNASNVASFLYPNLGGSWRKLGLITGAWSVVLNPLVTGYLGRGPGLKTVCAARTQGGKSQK

The target in this assay is human GPR40 (Homo sapiens (Human), UniProt O14842). Kind of assay: Inositol Phosphate Turnover (IP1) Assay. Type of assay: cell-based. Conditions: HEK cells stably expressing human GPR40. Here is the method:
Human and mouse GPR40 stable cell-lines were generated in CHO cells stably expressing NFAT BLA (Beta-lactamase). A human GPR40 stable cell-line was generated in HEK cells stably expressing the acquorin expressing reporter. The expression plasmids were transfected using lipofectamine (Life Technologies) following manufacturer's instructions. Stable cell-lines were generated following drug selection.
The assay is performed in 384-well format. HEK cells stably expressing human GPR40 are plated at 15,000 cells per well in growth medium (DMEM/10% fetal calf serum). Cell plates are then incubated 16 hours at 37 degrees in a 5% CO2 incubator.
Measurement of Inositol Phosphate Turnover (IP1) is performed using the CisBio IP-One kit (Part number 62IPAPEB). After the 16 hour incubation, the cells are washed with HEPES buffer and 10 ul of stimulation buffer (prepared as described in the kit) is added to each well. In a separate plate, compounds are diluted in DMSO (400-fold over the final concentration in the assay well) and 25 nl is acoustically transferred to the appropriate well in the assay cell plate. The plates are then incubated for 60 minutes at 37 degrees. 10 ul of detection buffer (also prepared as described in the IP-One kit) is added to each well and the plates are incubated for 60 minutes in the dark. The plates are then read in a Perkin Elmer EnVision or equivalent reader able to measure FRET. Fluorescent ratio of emission at 665 and 620 nm is then converted to IP1 concentration by back calculating from an IP1 standard curve prepared at the time of the assay.
In turn, `COc1ccc(F)c(-c2ccc(C3CCCc4ccc([C@H](C5CCC5)[C@H](C)C(=O)O)cc4O3)cc2)c1` (single isomer, unassigned) [Example 11, Sodium (2S,3R)-3-cyclobutyl-3-((R or S)-2-(2′-fluoro-5′-methoxy-[1,1′-biphenyl]-4-yl)-2,3,4,5-tetrahydrobenzo[b]oxepin-8-yl)-2-methylpropanoate] had an EC50 of 6 nM.
For `COc1cc(-c2ccc(C3CCCc4ccc([C@H](C5CC5)[C@H](C)C(=O)O)cc4O3)c(F)c2)ccn1` (single isomer, unassigned) [Example 2, (2S,3R)-3-cyclopropyl-3-((R or S)-2-(2-fluoro-4-(2-methoxypyridin-4-yl)phenyl)-2,3,4,5-tetrahydrobenzo[b]oxepin-8-yl)-2-methylpropanoic acid] the value was 14 nM; for `COc1cc(-c2cnc(C3CCCc4ccc([C@H](C5CC5)[C@H](C)C(=O)O)cc4O3)cn2)c(F)cn1` (single isomer, unassigned) [Example 12], 116 nM; for `COc1cc(-c2ccc(C3CCCc4ccc([C@H](C5CC5)[C@H](C)C(=O)O)cc4O3)cc2)c(F)cn1` (single isomer, unassigned) [Example 6, (2S,3R)-3-cyclopropyl-3-((R or S)-2-(4-(5-fluoro-2-methoxypyridin-4-yl)phenyl)-2,3,4,5-tetrahydrobenzo[b]oxepin-8-yl)-2-methylpropanoic acid], 5.2 nM.
As for `COc1cc(-c2ccc(C3CCCc4ccc([C@H](C5CC5)[C@H](C)C(=O)O)cc4O3)nc2)c(F)cn1` (mixture of isomers) [Example 7, (2S,3R)-3-cyclopropyl-3-((RS)-2-(5′-fluoro-2′-methoxy-[3,4′-bipyridin]-6-yl)-2,3,4,5-tetrahydrobenzo[b]oxepin-8-yl)-2-methylpropanoic acid], the figure is 3 nM; as for `C[C@H](C(=O)O)[C@H](c1ccc2c(c1)OC(C1CN(Cc3cc(C(F)(F)F)ccc3C(F)(F)F)C1)CCC2)C1CC1` (single isomer, unassigned) [Example 4, (2S,3R)-3-((R or S)-2-(1-(2,5-bis(trifluoromethyl)-benzyl)azetidin-3-yl)-2,3,4,5-tetrahydrobenzo[b]-oxepin-8-yl)-3-cyclopropyl-2-methylpropanoic acid], 27 nM; as for `C[C@H](C(=O)O)[C@H](c1ccc2c(c1)OC(C1CN(Cc3cc(C(F)(F)F)ccc3C(F)(F)F)C1)CCC2)C1CC1` (single isomer, unassigned) [Example 3, (2S, 3R)-3-((R or S)-2-(1-(2,5-bis (trifluoromethyl)benzyl)azetidin-3-yl)-2,3,4,5-tetrahydrobenzo[b]oxepin-8-yl)-3-cyclopropyl-2-methylpropanoic acid], 13 nM.
For `COc1cc(-c2ccc(C3CCCc4ccc([C@H](C5CC5)[C@H](C)C(=O)O)cc4O3)c(F)c2)ccn1` (single isomer, unassigned) [Example 1, (2S,3R)-3-cyclopropyl-3-((R or S)-2-(2-fluoro-4-(2-methoxypyridin-4-yl)phenyl)-2,3,4,5-tetrahydrobenzo[b]oxepin-8-yl)-2-methylpropanoic acid] the value was 3.6 nM; for `COc1cc(-c2ccc(C3CCCc4ccc([C@H](C5CC5)[C@H](C)C(=O)O)cc4O3)nc2)c(F)cn1` (single isomer, unassigned) [Example 8, (2S,3R)-3-cyclopropyl-3-((R or S)-2-(5′-fluoro-2′-methoxy-[3,4′-bipyridin]-6-yl)-2,3,4,5-tetrahydrobenzo[b]oxepin-8-yl)-2-methylpropanoic acid], 29 nM; for `COc1ccc(F)c(-c2ccc(C3CCCc4ccc([C@H](C5CCC5)[C@H](C)C(=O)O)cc4O3)cc2)c1` (single isomer, unassigned) [Example 10, Sodium (2S,3R)-3-cyclobutyl-3-((R or S)-2-(2′-fluoro-5′-methoxy-[1,1′-biphenyl]-4-yl)-2,3,4,5-tetrahydrobenzo[b]oxepin-8-yl)-2-methylpropanoate], 4.6 nM.
Compound `COc1cc(-c2ccc(C3CCCc4ccc([C@H](C5CC5)[C@H](C)C(=O)O)cc4O3)cc2)c(F)cn1` (mixture of isomers) [Example 5, (2S,3R)-3-cyclopropyl-3-((RS)-2-(4-(5-fluoro-2-methoxypyridin-4-yl)phenyl)-2,3,4,5-tetrahydrobenzo[b]oxepin-8-yl)-2-methylpropanoic acid] had an EC50 of 3.1 nM.
As for `COc1cc(-c2cnc(C3CCCc4ccc([C@H](C5CC5)[C@H](C)C(=O)O)cc4O3)cn2)c(F)cn1` (single isomer, unassigned) [Example 13], the figure is 684 nM.
